Test results reported in patent US10988523B2, “Modified lipidated Relaxin B chain peptides and their therapeutic use” (Sanofi, priority 2018, dated 2021).
Values after ≈ are worked out from the molar mass of the structure shown. Where two headings read alike, the source gives them in different places. *1 amine or outer side, *2 acyl side, *3 side chain or, on linkers, in order; H or OH if unused. Where a SMILES comes first, the peptide text is derived from it. Side-chain parts run from the residue outwards. [ ]: non-standard residue; d: D form. The star is where a group is joined. X7 = CCCCCCCCCCCCCCCCCC(=O)N[C@@H](CCC(=O)N[C@@H](CCC(=O)N[C@@H](CCC(=O)NCCCOCCOCCOCCCNC(=O)COCC(=O)NCCCOCCOCCOCCCNC(=O)COCC(=O)*)C(=O)O)C(=O)O)C(=O)O; γGlu = O=C(O)[C@H](CCC(=O)[*:2])N[*:1]; Palmitoyl = CCCCCCCCCCCCCCCC(=O)*; Nle = CCCC[C@H](N)C(=O)O; AEEA = NCCOCCOCC(=O)O; Aib = CC(C)(N)C(=O)O

Columns and labels:
RXFP1 = target: T1, RXFP1 (Homo sapiens, UniProt Q9HBX9); assay: OVCAR5 cAMP assay (HTRF), RXFP1 agonist activity; assay type: cell-based; settings: for Emax: OVCAR-5, maximal cAMP relative to H2-relaxin maximum (100%), read-out: EMax, OVCAR 5 cells (cAMP)
T1 construct: OVCAR5 cells expressing endogenous RXFP1; endogenous in cells; host or cells: OVCAR5 cells
T1 sequence (Q9HBX9 1-757): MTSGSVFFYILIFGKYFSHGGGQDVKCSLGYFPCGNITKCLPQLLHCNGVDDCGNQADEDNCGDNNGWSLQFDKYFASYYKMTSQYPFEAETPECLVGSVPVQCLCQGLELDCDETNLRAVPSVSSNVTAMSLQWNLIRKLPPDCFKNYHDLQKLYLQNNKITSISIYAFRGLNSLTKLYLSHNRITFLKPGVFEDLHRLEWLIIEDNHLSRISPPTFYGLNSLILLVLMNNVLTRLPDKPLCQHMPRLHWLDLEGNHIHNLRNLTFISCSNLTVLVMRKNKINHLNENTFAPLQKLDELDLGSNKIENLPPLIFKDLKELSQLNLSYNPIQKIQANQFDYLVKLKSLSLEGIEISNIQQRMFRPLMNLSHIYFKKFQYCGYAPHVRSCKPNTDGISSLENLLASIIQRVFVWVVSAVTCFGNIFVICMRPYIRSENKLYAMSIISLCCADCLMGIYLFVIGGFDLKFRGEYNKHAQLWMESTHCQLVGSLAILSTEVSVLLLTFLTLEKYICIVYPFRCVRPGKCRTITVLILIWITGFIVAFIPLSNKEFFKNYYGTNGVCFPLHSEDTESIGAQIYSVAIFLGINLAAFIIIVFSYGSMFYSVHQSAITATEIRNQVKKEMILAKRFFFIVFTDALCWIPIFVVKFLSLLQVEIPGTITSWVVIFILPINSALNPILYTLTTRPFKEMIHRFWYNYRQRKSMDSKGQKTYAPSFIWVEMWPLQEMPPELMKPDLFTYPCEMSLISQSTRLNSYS
Procedure, shortened: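 OVCAR5 cells (endogenous RXFP1) pretreated 40 min at 37° C with 1 mM IBMX, then exposed to peptides in serum-free medium for 30 min at 37° C. Lysate cAMP read by HTRF; EC50 from variable-slope sigmoidal fit; Emax as % of H2-relaxin maximal cAMP in same run.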

[1] = Solubility testing of peptides in buffer; assay type: physicochemical
Procedure: Prior to the testing of solubility of a peptide batch, its purity (HPLC-UV) was determined.
Acetate Buffer 50 mM pH4.5: 0.75 g […], 3H2O (Sigma 57545)+0.35 ml CH3CO2H 100% solution dissolved in Millipore water, adjusted to pH with diluted (1:1) CH3CO2H and diluted to 250 ml with Millipore water.
In a 4 ml Ependorph vial, an accurately weighed sample of compound was diluted in study media to obtain target concentration of 2, 6 or 10 mg/ml of pure compound. The sample vials were shacked (rock 'roll shaker) for ˜19 h. 3004, Aliquots ( ) were filtered through a Millipore “Solvinert” plate (0.45 μm—PTFE hydrophilic).
pH was measured with a micro electrode
Waters Acquity UPLC System with DAD detector
Column: Waters Peptide Column CSH C18 (130 Å; 1.7 μm; 50*2.1 mm)
Column temperature: 60° C.
Full loop (about 5 μL)—overfill factor 5
Weak et Strong wash: H2O/ACN (75/25; V/V); Seal wash: H2O/IsOH (95/5; V/V). Mobile phase:
Solvent A: 0.05% TFA in H2O; Solvent B: 0.035% TFA in CH3CN
Gradient: from 0 to 12 min B=2% to 60%, from 12 to 14 min B=60% to 100%. Column washing 100% B 1 min, column equilibration 2% B 2.5 min.
UV detector: wavelength: 220 nm.

[2] = Pharmacokinetic (PK) determination after i.v. or s.c. administration to rats; assay type: in vivo, Sprague Dawley rats; settings: Sprague Dawley, Rat PK
Procedure, shortened: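 Sprague Dawley rats received peptide in PBS at 1 mg/kg i.v. or 3 mg/kg s.c., dose corrected for salts, solvent and purity. Plasma analysed by LC/MS after protein precipitation; non-compartmental PK, BLQ values set to zero, F% as dose-corrected s.c./i.v. AUC ratio.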

[3] = Stability testing of peptides in rat plasma or blood; assay type: in vitro ADME; settings: 37° C.
Procedure: (§1) Prior to the testing of stability in plasma (or blood) of a peptide batch, its purity (HPLC-UV) was determined.
(§2) Rat and Human plasma: anti-coagulant sodium or lithium heparin.
(§3) Rat and Human blood: anti-coagulant sodium or lithium heparin. • Stock solution: • 100 μM solution of study compound in 50 mM Phosphate buffer pH 7.4. • 950 μL plasma (or blood) was pre-incubated for 5 min at 37° C. 50 μL of compound stock solution was added. Final compound concentration=5 μM. Vortex and transfer 1504, plasma (or blood) into an Eppendorf for each time point. The time points […] were carried out in duplicate for each species.
(§4) After incubation 150 μL, plasma (or blood) was extracted with 600 μL, Acetonitrile containing with 1% TFA. Then, vortexed and centrifuged 10 min at 14600 rpm. 200 μL supernatant was dried under N2. The sample was reconstituted in 200 μL of H2O/CH3CN 98/2+0.1% FA+50 ng/ml Labetalol and analyzed using the analytical system used in solubility and stability studies.
(§5) For determination of the amount of the remaining peptide, the peak areas of the target compound at t0 and each time point […] were compared, resulting in “% remaining peptide”, following the equation: % remaining peptide=[(peak area peptide time)×100]/peak area peptide t0. The stability is expressed as “% remaining peptide”.

[4] = Stability testing of peptides in human plasma or blood; assay type: in vitro ADME; settings: 37° C.
Procedure: as §1, §2, §3, §4, §5

| SMILES | Emax (RXFP1) [%] | solubility ([1]; acetate buffer, pH 4.5, read-out: Solubility Acetate buffer pH 4.5) [µg/mL] | solubility ([1]; phosphate buffer, pH 7.4, read-out: Solubility phosphate buffer pH 7.4) [µg/mL] | EC50 (RXFP1; OVCAR5 cells, cAMP HTRF, read-out: EC50 (nM), OVCAR 5 cells (cAMP)) [nM] | C0 ([2]; iv, 1 mg/kg i.v., extrapolated plasma concentration at t=0, read-out: C0) [nM] | half-life ([2]; plasma, iv, 1 mg/kg i.v., read-out: T½ (converted)) [h] | Cmax ([2]; plasma, sc, 3 mg/kg s.c.) [nM] | Tmax ([2]; plasma, sc, 3 mg/kg s.c.) [h] | bioavailability ([2]; plasma, subcutaneous, 3 mg/kg s.c. vs 1 mg/kg i.v., dose-corrected AUC ratio) [%] | Rat plasma stability % remaining T = 0 ([3]; rat plasma or blood, T = 0 (reference), 5 μM) [%] | remaining at 1 h, 5 µM ([3]; rat plasma, 1 h, read-out: Rat plasma stability % remaining 1 h) [%] | remaining at 4 h, 5 µM ([3]; rat plasma, 4 h, read-out: Rat plasma stability % remaining 4 h) [%] | Human Plasma stability % remaining T = 0 ([4]; human plasma or blood, T = 0 (reference), 5 μM) [%] | remaining at 1 h, 5 µM ([4]; human plasma, 1 h, read-out: Human Plasma stability % remaining 1 h) [%] | remaining at 4 h, 5 µM ([4]; human plasma, 4 h, read-out: Human Plasma stability % remaining 4 h) [%] |
| --- | --- | --- | --- | --- | --- | --- | --- | --- | --- | --- | --- | --- | --- | --- | --- |
| CCCCCCCCCCCCCCCCCC(=O)N[C@@H](CCC(=O)N[C@@H](CCC(=O)N[C@@H](CCC(=O)NCCCOCCOCCOCCCNC(=O)COCC(=O)NCCCOCCOCCOCCCNC(=O)COCC(=O)NCCCC[C@H](NC(=O)[C@H](CCCCNC(C)=O)NC(=O)[C@H](CCCCN)NC(=O)[C@H](CCCNC(=N)N)NC(=O)C(C)(C)NC(=O)[C@H](CO)NC(=O)[C@H](Cc1c[nH]c2ccccc12)NC(=O)[C@@H](NC(=O)[C@H](CO)NC(=O)[C@H](CCCC)NC(=O)CNC(=O)[C@H](CCC(=O)O)NC(=O)C(C)(C)NC(=O)C(C)(C)NC(=O)[C@@H](NC(=O)[C@H](CCCCNC(C)=O)NC(=O)[C@H](C)NC(=O)[C@H](CCCNC(=N)N)NC(=O)[C@@H](NC(=O)[C@H](CCCCN)NC(=O)[C@H](CCC(=O)O)NC(=O)[C@H](CCCNC(=N)N)NC(=O)CNC(=O)[C@H](CCC(=O)O)NC(=O)[C@H](CC(C)C)NC(C)=O)C(C)C)[C@@H](C)CC)[C@@H](C)O)C(N)=O)C(=O)O)C(=O)O)C(=O)O [compound 95] (Ac-LEGREKVRAK(Ac)I[Aib][Aib]EG[Nle]STWS[Aib]RKK(Ac)K(X7)-NH2) | 87 | 5600 (≈ 1310 µM) | 5600 (≈ 1310 µM) | – | – | – | – | – | – | – | – | – | – | – | – |
| CCCCCCCCCCCCCCCC(=O)N[C@@H](CCC(=O)NCCCC[C@H](NC(=O)CC[C@H](NC(=O)CC[C@H](NC(=O)CC[C@H](NC(=O)COCCOCCNC(=O)COCCOCCNC(=O)COCCOCCNC(=O)[C@H](CCCCN)NC(=O)[C@H](CCCCN)NC(=O)[C@H](CCCCN)NC(=O)[C@H](CCCNC(=N)N)NC(=O)C(C)(C)NC(=O)[C@H](CO)NC(=O)[C@H](Cc1c[nH]c2ccccc12)NC(=O)[C@@H](NC(=O)[C@H](CO)NC(=O)[C@H](CCCC)NC(=O)CNC(=O)[C@H](CCC(=O)O)NC(=O)C(C)(C)NC(=O)C(C)(C)NC(=O)[C@@H](NC(=O)[C@H](CCC(N)=O)NC(=O)[C@H](C)NC(=O)[C@H](CCCNC(=N)N)NC(=O)[C@@H](NC(=O)[C@H](CCCCN)NC(=O)[C@H](CCC(=O)O)NC(=O)[C@H](CCCNC(=N)N)NC(=O)CNC(=O)[C@H](CCC(=O)O)NC(=O)[C@H](CC(C)C)NC(C)=O)C(C)C)[C@@H](C)CC)[C@@H](C)O)C(=O)O)C(=O)O)C(=O)O)C(N)=O)C(=O)O [compound 107] (Ac-LEGREKVRAQI[Aib][Aib]EG[Nle]STWS[Aib]RKKK[AEEA][AEEA][AEEA][γGlu][γGlu][γGlu]K([γGlu-Palmitoyl])-NH2) | 85 | – | – | 0.63 | 2600 | 2.5 | 1600 | 8 | 27 | 100 | 93 | 110 | 100 | 98 | 106 |
